Values joined by “and” are separate entries in the source; they are usually repeats but may differ in a detail not shown here. Equal values may be shown once. Inconclusive results and toxic doses are left out. No stated cut-off is given here; in the data, active means T/C of 150% or more; inactive means T/C below 125%.
Tested on: L1210 leukemia ip in BDF1 mice, survival T/C
Assay: NCI In Vivo Anticancer Drug Screen. Data for tumor model L1210 Leukemia (intraperitoneal) in B6D2F1 (BDF1) mice
Conditions: endpoint: mean survival time, higher = longer survival
How it was run: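 Each compound was tested against a transplantable tumor grown in mice. The endpoint was survival, with treated animals benchmarked against vehicle controls as a simple ratio.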

[1] = dose: 50.0 mg/kg/injection, schedule: Q01DX001 (ip), vehicle: saline
[2] = dose: 100.0 mg/kg/injection, schedule: Q01DX001 (ip), vehicle: saline
[3] = dose: 100.0 mg/kg/injection, schedule: Q01DX009 (ip), vehicle: saline
[4] = dose: 100.0 mg/kg/injection, schedule: Q04DX003 (ip), vehicle: Klucel (hydroxypropylcellulose) (HPC)
[5] = dose: 200.0 mg/kg/injection, schedule: Q01DX009 (ip), vehicle: saline
[6] = dose: 200.0 mg/kg/injection, schedule: Q04DX003 (ip), vehicle: Klucel (hydroxypropylcellulose) (HPC)
[7] = dose: 400.0 mg/kg/injection, schedule: Q01DX009 (ip), vehicle: saline
[8] = dose: 400.0 mg/kg/injection, schedule: Q04DX003 (ip), vehicle: Klucel (hydroxypropylcellulose) (HPC)
[9] = dose: 100.0 mg/kg/injection, schedule: Q01DX009 (ip), vehicle: saline with Tween-80
[10] = dose: 100.0 mg/kg/injection, schedule: Q01DX009 (ip), vehicle: Klucel (hydroxypropylcellulose) (HPC)
[11] = dose: 100.0 mg/kg/injection, schedule: Q04DX002 (ip), vehicle: saline with Tween-80
[12] = dose: 200.0 mg/kg/injection, schedule: Q04DX002 (ip), vehicle: saline with Tween-80
[13] = dose: 400.0 mg/kg/injection, schedule: Q04DX002 (ip), vehicle: saline with Tween-80
[14] = dose: 100.0 mg/kg/injection, schedule: Q04DX003 (ip), vehicle: saline
[15] = dose: 200.0 mg/kg/injection, schedule: Q04DX003 (ip), vehicle: saline
[16] = dose: 400.0 mg/kg/injection, schedule: Q04DX003 (ip), vehicle: saline

Measured: T/C

OCCN1CCN(CC/C=C2\c3ccccc3COc3ccc(Cl)cc32)CC1
inactive: dose: 0.78 mg/kg/injection, schedule: Q03HX024 (ip), vehicle: saline 97 % of control | dose: 1.56 mg/kg/injection, schedule: Q03HX024 (ip), vehicle: saline 94 % of control | dose: 2.0 mg/kg/injection, schedule: Q01DX009 (ip), vehicle: saline 88 % of control | dose: 3.12 mg/kg/injection, schedule: Q01DX009 (ip), vehicle: saline 114 % of control and 123 % of control | dose: 3.12 mg/kg/injection, schedule: Q03HX024 (ip), vehicle: saline 96 % of control | dose: 3.12 mg/kg/injection, schedule: Q04DX003 (ip), vehicle: saline 97 % of control | dose: 4.0 mg/kg/injection, schedule: Q01DX009 (ip), vehicle: saline 98 % of control | dose: 6.25 mg/kg/injection, schedule: Q01DX009 (ip), vehicle: saline 107 % of control and 122 % of control | dose: 6.25 mg/kg/injection, schedule: Q04DX003 (ip), vehicle: saline 105 % of control and 120 % of control | dose: 8.0 mg/kg/injection, schedule: Q01DX009 (ip), vehicle: saline 96 % of control | dose: 12.5 mg/kg/injection, schedule: Q01DX001 (ip), vehicle: saline 106 % of control | dose: 12.5 mg/kg/injection, schedule: Q01DX009 (ip), vehicle: saline 114 % of control | dose: 12.5 mg/kg/injection, schedule: Q04DX003 (ip), vehicle: saline 103 % of control and 117 % of control | dose: 16.0 mg/kg/injection, schedule: Q01DX009 (ip), vehicle: saline 100 % of control | dose: 18.75 mg/kg/injection, schedule: Q01DX001 (ip), vehicle: saline 100 % of control | dose: 25.0 mg/kg/injection, schedule: Q01DX001 (ip), vehicle: saline 120 % of control | dose: 25.0 mg/kg/injection, schedule: Q04DX003 (ip), vehicle: saline 95 % of control and 119 % of control | dose: 37.5 mg/kg/injection, schedule: Q01DX001 (ip), vehicle: saline 120 % of control | [1] 101 % of control | dose: 50.0 mg/kg/injection, schedule: Q04DX003 (ip), vehicle: saline 101 % of control | dose: 75.0 mg/kg/injection, schedule: Q01DX001 (ip), vehicle: saline 88 % of control | [2] 118 % of control

O=C(O)c1ccc(O)c([N+](=O)[O-])c1
inactive: [3] 105 % of control | [4] 101 % of control | [5] 96 % of control | [6] 100 % of control | [7] 87 % of control | [8] 102 % of control

O=C1C2C3CCC(O3)C2C(=O)N1N1C(=O)C2C3CCC(O3)C2C1=O (stereo not drawn)
inactive: dose: 100.0 mg/kg/injection, schedule: Q01DX009 (ip), vehicle: carboxymethylcellulose (CMC) 102 % of control | dose: 100.0 mg/kg/injection, schedule: Q04DX003 (ip), vehicle: carboxymethylcellulose (CMC) 110 % of control | dose: 200.0 mg/kg/injection, schedule: Q01DX009 (ip), vehicle: carboxymethylcellulose (CMC) 97 % of control | dose: 200.0 mg/kg/injection, schedule: Q04DX003 (ip), vehicle: carboxymethylcellulose (CMC) 111 % of control | dose: 400.0 mg/kg/injection, schedule: Q01DX009 (ip), vehicle: carboxymethylcellulose (CMC) 87 % of control | dose: 400.0 mg/kg/injection, schedule: Q04DX003 (ip), vehicle: carboxymethylcellulose (CMC) 101 % of control

CC(C)c1cc(C(C)C)nc(NNc2nc(C(C)C)cc(C(C)C)n2)n1
inactive: [9] 102 % of control | dose: 200.0 mg/kg/injection, schedule: Q01DX009 (ip), vehicle: saline with Tween-80 100 % of control | dose: 400.0 mg/kg/injection, schedule: Q01DX009 (ip), vehicle: saline with Tween-80 98 % of control

CCN(CCP(c1ccccc1)c1ccccc1)CCP(c1ccccc1)c1ccccc1
inactive: dose: 6.25 mg/kg/injection, schedule: Q01DX009 (ip), vehicle: Klucel (hydroxypropylcellulose) (HPC) 120 % of control | dose: 19.0 mg/kg/injection, schedule: Q01DX001 (ip), vehicle: other 120 % of control | dose: 25.0 mg/kg/injection, schedule: Q01DX009 (ip), vehicle: Klucel (hydroxypropylcellulose) (HPC) 122 % of control | dose: 25.0 mg/kg/injection, schedule: Q04DX003 (ip), vehicle: Klucel (hydroxypropylcellulose) (HPC) 106 % of control | dose: 38.0 mg/kg/injection, schedule: Q01DX001 (ip), vehicle: other 112 % of control | dose: 50.0 mg/kg/injection, schedule: Q01DX009 (ip), vehicle: Klucel (hydroxypropylcellulose) (HPC) 100 % of control and 117 % of control | dose: 50.0 mg/kg/injection, schedule: Q04DX003 (ip), vehicle: Klucel (hydroxypropylcellulose) (HPC) 116 % of control | [10] 111 % of control | [4] 122 % of control

Cc1ccc(N2C=C(c3ccccc3)CC2=O)cc1
inactive: [11] 107 % of control | [12] 100 % of control | [13] 104 % of control

N#CSC1CSC(SC2=NC(SC#N)CS2)=N1 (stereo not drawn)
inactive: [10] 94 % of control | [14] 98 % of control | dose: 200.0 mg/kg/injection, schedule: Q01DX009 (ip), vehicle: Klucel (hydroxypropylcellulose) (HPC) 104 % of control | [15] 92 % of control

COc1cccc(CNC(C)(CO)CO)c1OC
inactive: [1] 98 % of control | [2] 104 % of control | dose: 200.0 mg/kg/injection, schedule: Q01DX001 (ip), vehicle: saline 102 % of control

c1cncc(CNc2ncn[nH]2)c1
inactive: [3] 103 % of control | [14] 97 % of control | [5] 97 % of control | [15] 103 % of control | [7] 103 % of control | [16] 95 % of control

N#C/C(=C\c1cc(Cl)ccc1O)C1CCC([N+](=O)[O-])CC1 (stereo not drawn)
inactive: [11] 98 % of control | [12] 113 % of control | [13] 106 % of control

CSc1nc(NN)cc(-c2ccccc2)n1
inactive: dose: 100.0 mg/kg/injection, schedule: Q01DX Z (ip), vehicle: methylcellulose (MC) 98 % of control | dose: 200.0 mg/kg/injection, schedule: Q01DX Z (ip), vehicle: methylcellulose (MC) 90 % of control

CN(C)C1(Cc2ccccc2)c2ccccc2-c2ccc(Br)cc21 (stereo not drawn)
inactive: dose: 6.25 mg/kg/injection, schedule: Q01DX009 (ip), vehicle: saline with Tween-80 92 % of control | dose: 12.5 mg/kg/injection, schedule: Q01DX009 (ip), vehicle: saline with Tween-80 89 % of control | dose: 25.0 mg/kg/injection, schedule: Q01DX009 (ip), vehicle: saline with Tween-80 89 % of control | [9] 88 % of control

COc1cc(/C=C(\C#N)c2cccc3ccccc23)cc(OC)c1OC
inactive: [4] 107 % of control | [6] 103 % of control | [8] 94 % of control

[N-]=[N+]=C1N=C(Cl)N=C1c1ncn[nH]1
inactive: dose: 25.0 mg/kg/injection, schedule: Q01DX001 (ip), vehicle: Klucel (hydroxypropylcellulose) (HPC) 97 % of control | dose: 50.0 mg/kg/injection, schedule: Q01DX001 (ip), vehicle: Klucel (hydroxypropylcellulose) (HPC) 108 % of control | dose: 100.0 mg/kg/injection, schedule: Q01DX001 (ip), vehicle: Klucel (hydroxypropylcellulose) (HPC) 102 % of control and 112 % of control | dose: 400.0 mg/kg/injection, schedule: Q01DX001 (ip), vehicle: Klucel (hydroxypropylcellulose) (HPC) 112 % of control

O=C(O)CC(O)C(F)(F)C(F)(F)C(F)(F)F (stereo not drawn)
inactive: [3] 90 % of control | [14] 100 % of control | [5] 86 % of control | [15] 97 % of control | [16] 87 % of control

Reference: PubChem BioAssay AID248 (DTP/NCI, 2004)
